This note sets out measurements from ChEMBL document CHEMBL1201862, “PubChem BioAssay data set” (2004).

Experiment [1] is described as follows: loss of viability in HepG2 cells – cell-based, CellTiter-Glo, cherry-picked, cytotoxicity control for Shn3 inhibitor project, dose response (AID 624134). Type of experiment: functional. Background: ATP-based viability assays read luminescence as a measure of living cells.
Experiment [2] is described as follows: Fluorescence-based cell-based high throughput dose response assay for inhibitors of the interaction of nucleotide-binding oligomerization domain containing 2 (NOD2) and the receptor-interacting serine-threonine kinase 2 (RIPK2). The settings on record: Homo sapiens. Type of experiment: functional.
In experiment [3] the target is Paired box protein Pax-8 (Homo sapiens, UniProt Q06710). The experiment in a line: PAX8 transcriptional activity inhibition in RMG-I – RMG-I cells, luciferase, cherry-pick, dose response (AID 687027).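 Further: luciferase reporter driven by Pax8 target thyroperoxidase promoter measured by SteadyGlo luminescence.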 Type of experiment: functional, cell-based.
Sequence of Paired box protein Pax-8 (Q06710 whole entry): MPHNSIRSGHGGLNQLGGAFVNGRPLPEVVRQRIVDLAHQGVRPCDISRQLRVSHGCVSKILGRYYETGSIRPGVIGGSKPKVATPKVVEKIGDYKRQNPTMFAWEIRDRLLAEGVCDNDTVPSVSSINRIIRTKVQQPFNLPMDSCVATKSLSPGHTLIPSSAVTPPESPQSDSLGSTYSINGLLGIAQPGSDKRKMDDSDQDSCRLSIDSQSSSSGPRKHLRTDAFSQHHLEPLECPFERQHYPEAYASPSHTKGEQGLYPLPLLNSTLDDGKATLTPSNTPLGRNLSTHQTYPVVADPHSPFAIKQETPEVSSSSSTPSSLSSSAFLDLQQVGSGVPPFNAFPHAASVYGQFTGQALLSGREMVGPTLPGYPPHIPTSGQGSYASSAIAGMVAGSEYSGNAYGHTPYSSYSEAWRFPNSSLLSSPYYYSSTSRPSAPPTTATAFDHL
Experiment [4] can be described thus: reduction of Shn3 3'UTR-driven luciferase in osteoblasts – cell-based, Clone20 osteoblasts, firefly luciferase, cherry-picked, dose response (AID 624132).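 Further: firefly luciferase luminescence from reporter carrying the Shn3 3'UTR in osteoblasts.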 Type of experiment: functional.
A short description of experiment [5]: non-specific 3'UTR reporter inhibition in Clone20-Shn3RL – cell-based, Renilla luciferase, cherry-picked, counter-screen for Shn3 inhibitor project, dose response (AID 624133). Type of experiment: functional. A general note: Counterscreens check selectivity or assay interference.
For experiment [6], the target named is Beta Lactamase (Pseudomonas aeruginosa, UniProt Q932Y6). Description: BLA reporter interference, concentration series – BLA reporter cells, FRET fluorescence, artefact control for NOD2-RIPK2 interaction inhibitor project, dose response (AID 651552). Type of experiment: functional, cell-based.
Sequence of Beta Lactamase (Q932Y6 whole entry): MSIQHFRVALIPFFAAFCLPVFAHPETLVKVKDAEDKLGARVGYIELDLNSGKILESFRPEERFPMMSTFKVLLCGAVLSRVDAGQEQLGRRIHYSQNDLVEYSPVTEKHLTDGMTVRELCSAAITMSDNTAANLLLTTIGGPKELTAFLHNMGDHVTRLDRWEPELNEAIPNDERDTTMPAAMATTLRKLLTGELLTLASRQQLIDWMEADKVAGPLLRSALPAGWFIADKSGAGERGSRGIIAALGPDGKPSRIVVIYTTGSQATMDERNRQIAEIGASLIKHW
The nature of experiment [7]: antileishmanial activity on axenic amastigotes – plate reader, cherry pick, dose response (AID 651891). The settings on record: Leishmania donovani. Type of experiment: functional, cell-based.
Experiment [8] can be described thus: L6 myocyte viability loss – cell-based, plate reader, cherry-pick, cytotoxicity control, dose response (AID 651896). Type of experiment: functional.
The nature of experiment [9]: African trypanosome bloodstream form growth inhibition – STIB900 strain, plate reader, cherry pick, dose response (AID 651893). Type of experiment: functional, cell-based, Trypanosoma brucei rhodesiense. The settings on record: Trypanosoma brucei.
Experiment [10] is described as follows: Inhibition of T. cruzi Tulahuen strain amastigotes in L-6 muscle cells Measured in Cell-Based and Microorganism Combination System Using Plate Reader - 2138-03_Inhibitor_Dose_CherryPick_Activity. Type of experiment: functional. The conditions noted are these: Rattus norvegicus, L6.
Experiment [11] can be described thus: intracellular Trypanosoma cruzi inhibitors in host cells – cell-based, plate reader, cherry-pick samples, set 3, dose response (AID 651818).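 Further: compounds incubated with infected cells for about four days.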 Type of experiment: functional.
Experiment [12] in a line: Inhibition of Plasmodium falciparum NF54 Measured in Cell-Based System Using Plate Reader - 2138-11_Inhibitor_Dose_CherryPick_Activity. Type of experiment: functional.
Experiment [13] in a line: cytotoxicity toward MDA-MB-231 breast cancer cells – cell-based, CellTiter-Glo luminescence, cherry-pick, cytotoxicity control for RAD54 inhibitor project, dose response (AID 651692). Type of experiment: functional.
Experiment [14] concerns the target DNA repair protein RAD52 homolog (Homo sapiens, UniProt P43351). Type of experiment: functional, biochemical.
In experiment [15] the target is T1, DNA repair and recombination protein RAD54-like (Homo sapiens, UniProt Q92698).
T1 sequence (Q92698 whole entry): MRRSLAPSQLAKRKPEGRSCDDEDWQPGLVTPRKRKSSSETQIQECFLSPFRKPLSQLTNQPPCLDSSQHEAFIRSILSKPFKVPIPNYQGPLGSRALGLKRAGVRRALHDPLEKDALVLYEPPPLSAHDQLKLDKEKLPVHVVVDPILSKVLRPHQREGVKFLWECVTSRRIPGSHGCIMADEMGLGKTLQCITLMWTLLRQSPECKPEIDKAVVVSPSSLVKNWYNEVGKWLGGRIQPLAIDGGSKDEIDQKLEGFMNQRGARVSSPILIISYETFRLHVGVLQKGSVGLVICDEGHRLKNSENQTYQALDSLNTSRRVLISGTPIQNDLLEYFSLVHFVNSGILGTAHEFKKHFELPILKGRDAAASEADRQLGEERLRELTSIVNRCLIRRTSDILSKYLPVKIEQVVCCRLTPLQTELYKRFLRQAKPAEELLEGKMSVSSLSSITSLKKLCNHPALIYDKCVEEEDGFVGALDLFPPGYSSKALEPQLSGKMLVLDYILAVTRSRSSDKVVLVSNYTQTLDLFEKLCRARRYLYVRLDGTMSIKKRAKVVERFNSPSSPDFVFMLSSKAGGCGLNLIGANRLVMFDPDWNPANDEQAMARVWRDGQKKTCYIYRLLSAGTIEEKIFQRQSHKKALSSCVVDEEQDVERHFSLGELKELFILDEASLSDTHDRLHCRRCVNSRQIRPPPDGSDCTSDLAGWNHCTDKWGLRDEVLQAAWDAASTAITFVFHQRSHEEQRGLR
Description: RAD54 Holliday junction migration blockers – biochemical, fluorescence, cherry-picked samples, dose series, confirmation (AID 651657). Type of experiment: functional.

Experiment [16] has as its target T2, Corticotropin-releasing factor receptor 2/Corticotropin-releasing factor-binding protein (Homo sapiens, UniProt P24387+Q13324).
T2 sequence (Q13324 whole entry): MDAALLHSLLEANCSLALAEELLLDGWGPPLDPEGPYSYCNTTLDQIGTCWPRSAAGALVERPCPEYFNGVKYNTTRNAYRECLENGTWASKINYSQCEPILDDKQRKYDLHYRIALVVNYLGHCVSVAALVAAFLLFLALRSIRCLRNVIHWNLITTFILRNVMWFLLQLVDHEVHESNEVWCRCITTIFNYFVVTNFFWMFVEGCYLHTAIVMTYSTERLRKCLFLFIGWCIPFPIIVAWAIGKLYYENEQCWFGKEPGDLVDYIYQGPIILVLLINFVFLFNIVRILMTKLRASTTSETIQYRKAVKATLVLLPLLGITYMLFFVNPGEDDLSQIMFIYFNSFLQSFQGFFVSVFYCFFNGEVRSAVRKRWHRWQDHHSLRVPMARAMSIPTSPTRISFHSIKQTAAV
T2 sequence (P24387 whole entry): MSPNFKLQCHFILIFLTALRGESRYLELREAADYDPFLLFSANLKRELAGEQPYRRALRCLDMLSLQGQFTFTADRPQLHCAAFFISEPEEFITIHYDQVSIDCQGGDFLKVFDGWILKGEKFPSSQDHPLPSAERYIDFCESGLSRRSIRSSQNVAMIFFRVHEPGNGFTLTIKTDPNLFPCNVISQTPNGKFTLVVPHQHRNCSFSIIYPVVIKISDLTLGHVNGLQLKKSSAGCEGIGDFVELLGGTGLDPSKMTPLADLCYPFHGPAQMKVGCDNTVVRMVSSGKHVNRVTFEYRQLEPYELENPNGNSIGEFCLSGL
Description: activators of CRF receptor 2 with binding protein – uHTS hits, confirmation (AID 602473). Type of experiment: functional. The conditions noted are these: read-out: EC50_Mean.

Experiment [17] can be described thus: blockers of CRF-binding protein–CRF-R2 complex – cell-based, uHTS hits, 384-well, dose response (AID 651639). Type of experiment: functional, Homo sapiens. The conditions noted are these: read-out: IC50_Mean.
In experiment [18] the target is T2, Corticotropin-releasing factor receptor 2/Corticotropin-releasing factor-binding protein. The experiment in a line: Dose Response confirmation of uHTS hits for small molecule antagonists of the CRF-binding protein and CRF-R2 receptor complex. The settings on record: read-out: IC50_Mean. Type of experiment: functional.
In experiment [19] the target is T3, Tyrosine-protein phosphatase non-receptor type 22 (Homo sapiens, UniProt Q9Y2R2).
T3 sequence (Q9Y2R2 whole entry): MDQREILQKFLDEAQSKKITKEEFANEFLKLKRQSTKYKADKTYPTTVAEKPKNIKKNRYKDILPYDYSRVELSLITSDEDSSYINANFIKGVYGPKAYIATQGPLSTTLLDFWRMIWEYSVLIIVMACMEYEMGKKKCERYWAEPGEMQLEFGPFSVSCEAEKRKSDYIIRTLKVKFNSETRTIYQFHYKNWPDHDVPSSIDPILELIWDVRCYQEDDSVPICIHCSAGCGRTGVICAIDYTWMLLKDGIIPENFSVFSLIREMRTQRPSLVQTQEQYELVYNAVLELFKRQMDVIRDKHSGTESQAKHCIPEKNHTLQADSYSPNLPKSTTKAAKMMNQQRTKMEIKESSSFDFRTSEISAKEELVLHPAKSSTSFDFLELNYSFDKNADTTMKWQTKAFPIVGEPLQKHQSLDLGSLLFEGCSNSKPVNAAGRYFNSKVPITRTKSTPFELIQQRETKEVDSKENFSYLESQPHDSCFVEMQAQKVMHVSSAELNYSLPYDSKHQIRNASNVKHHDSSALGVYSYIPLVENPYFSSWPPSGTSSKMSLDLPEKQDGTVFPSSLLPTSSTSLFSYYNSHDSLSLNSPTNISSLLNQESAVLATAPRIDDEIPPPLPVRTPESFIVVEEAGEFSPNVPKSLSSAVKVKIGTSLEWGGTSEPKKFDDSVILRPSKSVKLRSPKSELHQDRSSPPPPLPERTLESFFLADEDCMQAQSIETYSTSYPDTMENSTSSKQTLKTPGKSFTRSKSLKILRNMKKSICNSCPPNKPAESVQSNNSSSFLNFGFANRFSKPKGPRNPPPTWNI
The experiment in a line: PTPN22 enzyme inhibitors – biochemical, fluorescence, LYP catalytic domain, selectivity assay for LMPTP inhibitor project, dose response (AID 652006). The settings on record: read-out: IC50_Mean. Type of experiment: functional.

Experiment [20] can be described thus: viability loss in HEK293T cells – cell-based, cherry-picks, cytotoxicity control for HIV Vif inhibitor project, dose response (AID 652208). Type of experiment: functional.
In experiment [21] the target is Low molecular weight phosphotyrosine protein phosphatase (Homo sapiens, UniProt P24666). Type of experiment: functional. The conditions noted are these: read-out: IC50_Mean.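 Further: Dose-response confirmation assay measuring inhibition of LMPTP enzyme activity by fluorescence intensity read-out.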
Sequence of Low molecular weight phosphotyrosine protein phosphatase (P24666 whole entry): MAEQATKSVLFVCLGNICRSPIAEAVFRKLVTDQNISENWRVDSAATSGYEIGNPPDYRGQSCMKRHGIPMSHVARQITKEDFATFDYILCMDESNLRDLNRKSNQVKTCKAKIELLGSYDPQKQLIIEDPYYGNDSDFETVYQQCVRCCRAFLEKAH
The target in experiment [22] is T4, ATP-dependent translocase ABCB1 (Homo sapiens, UniProt P08183). Description: inhibition of BCRP-mediated JC-1 efflux – Ig-MXP3 cells, flow cytometry, set 2, dose response (AID 504566).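 Further: flow cytometry median green fluorescence of retained JC-1 dye; potency of efflux pump inhibition measured as rising substrate retention.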 Type of experiment: functional. The conditions noted are these: read-out: EC50_MICROM_.
T4 sequence (P08183 whole entry): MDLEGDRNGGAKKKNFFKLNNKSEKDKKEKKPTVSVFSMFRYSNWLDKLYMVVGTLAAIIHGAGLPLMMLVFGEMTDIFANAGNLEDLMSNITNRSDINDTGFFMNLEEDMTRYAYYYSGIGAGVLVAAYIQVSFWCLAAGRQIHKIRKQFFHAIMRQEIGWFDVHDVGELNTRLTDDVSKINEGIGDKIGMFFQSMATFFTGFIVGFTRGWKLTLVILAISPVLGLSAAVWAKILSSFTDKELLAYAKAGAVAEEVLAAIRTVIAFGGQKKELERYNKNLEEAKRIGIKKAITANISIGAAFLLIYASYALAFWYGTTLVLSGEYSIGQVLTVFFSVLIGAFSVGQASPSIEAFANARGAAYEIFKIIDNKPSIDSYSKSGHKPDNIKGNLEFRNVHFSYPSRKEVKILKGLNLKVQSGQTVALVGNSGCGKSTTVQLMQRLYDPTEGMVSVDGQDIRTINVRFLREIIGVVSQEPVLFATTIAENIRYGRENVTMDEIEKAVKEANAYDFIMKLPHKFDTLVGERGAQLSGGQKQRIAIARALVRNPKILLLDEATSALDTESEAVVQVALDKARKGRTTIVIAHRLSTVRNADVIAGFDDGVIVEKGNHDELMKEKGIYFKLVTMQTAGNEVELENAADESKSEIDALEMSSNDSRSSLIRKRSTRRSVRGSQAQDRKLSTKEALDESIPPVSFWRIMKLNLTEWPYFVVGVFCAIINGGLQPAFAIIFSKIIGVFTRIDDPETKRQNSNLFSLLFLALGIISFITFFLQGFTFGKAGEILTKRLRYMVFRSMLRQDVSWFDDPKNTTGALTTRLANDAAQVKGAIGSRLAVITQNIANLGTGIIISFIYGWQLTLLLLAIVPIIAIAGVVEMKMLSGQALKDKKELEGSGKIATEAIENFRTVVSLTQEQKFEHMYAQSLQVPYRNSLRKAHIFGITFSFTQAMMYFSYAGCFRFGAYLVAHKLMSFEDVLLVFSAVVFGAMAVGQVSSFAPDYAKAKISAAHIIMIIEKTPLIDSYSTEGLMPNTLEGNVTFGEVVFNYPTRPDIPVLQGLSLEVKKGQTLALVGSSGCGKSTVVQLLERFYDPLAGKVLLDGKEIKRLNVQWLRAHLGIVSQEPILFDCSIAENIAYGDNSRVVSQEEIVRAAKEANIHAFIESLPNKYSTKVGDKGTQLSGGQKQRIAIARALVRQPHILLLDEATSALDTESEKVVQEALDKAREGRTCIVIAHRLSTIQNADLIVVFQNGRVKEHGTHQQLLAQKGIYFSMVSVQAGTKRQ
The target of experiment [23] is T4, ATP-dependent translocase ABCB1. The experiment in a line: P-gp JC-1 efflux blockade concentration-response – Jurkat-DNR cells, flow cytometry, set 2, dose response (AID 504569).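 Further: potency of pump inhibitors that raise cellular JC-1 green fluorescence up to the nicardipine level.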 Type of experiment: functional. The settings on record: read-out: EC50_MICROM_.
The target in experiment [24] is Beta-lactamase (Pseudomonas aeruginosa, UniProt Q79MP6).
Sequence of Beta-lactamase (Pseudomonas aeruginosa, UniProt Q79MP6) (Q79MP6 whole entry): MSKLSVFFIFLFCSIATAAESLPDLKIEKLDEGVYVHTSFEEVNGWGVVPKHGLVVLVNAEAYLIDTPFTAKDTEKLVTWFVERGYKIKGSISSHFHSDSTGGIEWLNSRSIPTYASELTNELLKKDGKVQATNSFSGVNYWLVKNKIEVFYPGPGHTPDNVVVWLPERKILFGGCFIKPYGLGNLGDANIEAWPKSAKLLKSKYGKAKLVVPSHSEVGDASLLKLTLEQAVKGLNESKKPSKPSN
Experiment [25] has as its target Beta-lactamase (Salmonella choleraesuis (strain SC-B67), UniProt Q5J463).
Experiment [26] is described as follows: nonselective StAR promoter luciferase inhibitors – cell-based, luminescence, luciferase reporter, counter-screen for LRH-1 inverse agonist project, dose response (AID 651969). Type of experiment: functional. (In general: A reporter such as luciferase makes a cellular process visible.)
For experiment [27], the target named is Steroidogenic factor 1 (Homo sapiens, UniProt Q13285). Description: Counterscreen for inverse agonists of the liver receptor homolog-1 (LRH-1; NR5A2): Luminescence-based cell-based high throughput dose response assay to identify inverse agonists of the Steroidogenic Factor 1 Nuclear Receptor (SF1; NR5A1). Type of experiment: functional.
Sequence of Steroidogenic factor 1 (Q13285 whole entry): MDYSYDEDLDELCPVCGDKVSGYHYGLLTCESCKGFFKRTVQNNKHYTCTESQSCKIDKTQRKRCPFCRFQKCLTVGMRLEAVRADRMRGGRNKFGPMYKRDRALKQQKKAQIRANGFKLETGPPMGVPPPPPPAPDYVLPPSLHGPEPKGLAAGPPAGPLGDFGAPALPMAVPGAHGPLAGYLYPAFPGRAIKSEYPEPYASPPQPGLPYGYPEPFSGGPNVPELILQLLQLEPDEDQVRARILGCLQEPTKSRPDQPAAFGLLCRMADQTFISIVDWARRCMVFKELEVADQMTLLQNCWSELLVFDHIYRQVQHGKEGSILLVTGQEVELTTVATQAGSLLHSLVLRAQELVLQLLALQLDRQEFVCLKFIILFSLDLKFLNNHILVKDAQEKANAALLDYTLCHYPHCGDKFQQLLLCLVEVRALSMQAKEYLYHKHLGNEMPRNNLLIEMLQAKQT
Experiment [28] deals with Nuclear receptor subfamily 5 group A member 2 (Homo sapiens, UniProt O00482). Type of experiment: functional, cell-based.
Sequence of Nuclear receptor subfamily 5 group A member 2 (O00482 whole entry): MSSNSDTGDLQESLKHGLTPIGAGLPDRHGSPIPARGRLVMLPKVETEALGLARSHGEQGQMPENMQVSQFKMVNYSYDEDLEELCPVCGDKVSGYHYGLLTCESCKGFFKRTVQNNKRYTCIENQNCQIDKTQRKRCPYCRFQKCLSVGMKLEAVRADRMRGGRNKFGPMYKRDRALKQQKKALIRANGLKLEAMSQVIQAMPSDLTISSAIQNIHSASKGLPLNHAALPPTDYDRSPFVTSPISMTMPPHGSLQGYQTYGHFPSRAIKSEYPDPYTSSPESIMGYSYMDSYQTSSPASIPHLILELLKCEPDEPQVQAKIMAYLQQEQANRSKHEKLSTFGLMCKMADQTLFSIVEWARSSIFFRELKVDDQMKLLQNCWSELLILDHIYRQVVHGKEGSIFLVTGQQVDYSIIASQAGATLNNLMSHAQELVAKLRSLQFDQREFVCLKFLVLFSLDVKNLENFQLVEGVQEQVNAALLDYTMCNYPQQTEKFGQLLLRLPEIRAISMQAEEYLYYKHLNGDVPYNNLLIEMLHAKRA

Each structure is given as a SMILES string. The source made the active and inactive calls.

Sequence of Beta-lactamase (Salmonella choleraesuis (strain SC-B67), UniProt Q5J463) (Q5J463 whole entry): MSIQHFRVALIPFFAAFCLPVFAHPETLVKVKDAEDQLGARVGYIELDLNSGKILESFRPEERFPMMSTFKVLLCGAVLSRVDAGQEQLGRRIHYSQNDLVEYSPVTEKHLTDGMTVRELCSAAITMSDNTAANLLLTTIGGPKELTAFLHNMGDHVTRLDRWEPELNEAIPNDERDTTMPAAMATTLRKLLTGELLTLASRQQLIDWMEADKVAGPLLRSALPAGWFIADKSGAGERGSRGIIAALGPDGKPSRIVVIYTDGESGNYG
Sequence of DNA repair protein RAD52 homolog (P43351 whole entry): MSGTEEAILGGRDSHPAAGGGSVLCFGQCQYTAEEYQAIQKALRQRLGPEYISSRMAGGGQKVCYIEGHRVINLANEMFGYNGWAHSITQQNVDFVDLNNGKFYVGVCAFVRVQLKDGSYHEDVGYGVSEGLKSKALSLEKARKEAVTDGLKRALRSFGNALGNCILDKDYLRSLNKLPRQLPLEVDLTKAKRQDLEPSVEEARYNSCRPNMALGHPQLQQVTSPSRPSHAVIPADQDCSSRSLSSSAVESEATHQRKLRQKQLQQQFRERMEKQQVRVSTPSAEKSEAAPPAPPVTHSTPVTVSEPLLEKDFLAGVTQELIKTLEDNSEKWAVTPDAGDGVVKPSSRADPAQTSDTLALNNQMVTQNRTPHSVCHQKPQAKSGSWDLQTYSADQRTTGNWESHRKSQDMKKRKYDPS

Turning to `CC1CC(C)CC(C)C(O)C(C#N)=CC=CCC(C2CCCC2C(=O)O)OC(=O)CC(O)C(C)C1` (stereo not drawn), the AC50 is 10.2 µM (active) in [1], < 0.26 µM (active) in experiment [3], < 0.26 µM (active) in [4] and 1.08 µM (active) in experiment [5]. Moreover, the IC50 in [2] and in experiment [6] was 49.8 µM (inactive) throughout.

For the molecule `C[C@H](CO)N1C[C@H](C)[C@H](CN(C)Cc2ccccc2)Oc2c(NC(=O)c3ccncc3)cccc2C1=O`, the IC50 was > 100 µM (inactive) in experiment [7]; > 100 µM (inactive) in [8]; 75.4 µM (inactive) in experiment [9]; 20.6 µM (inactive) in [10]; 20.6 µM (inactive) in experiment [12]. Besides, the AC50 in experiment [11] is 0.208 µM (active).

For `COc1cc2ccccc2cc1C(=O)N(CCN(C)C)c1nc2c(OC)ccc(OC)c2s1`, the concentration at half-maximal activity (AC50) in experiment [13] was 18.1 µM (active); in experiment [14] it was 7.36 µM (active); in [15], 100 µM (inactive).

As to `CC(C)N(C(=O)[C@H]1C[C@H](CC(=O)NCCC2=CCCCC2)C(=O)N2CCc3c([nH]c4ccc(Cl)cc34)[C@]12C)C(C)C`, the EC50 in experiment [16] is > 53 µM (inactive). Moreover, the IC50 in [17] is 4.28 µM (active); in experiment [18] it was 3.6 µM (active).

Take `Cc1cc(N2CCN(S(=O)(=O)c3ccc(Cl)c(Cl)c3)CC2)c2ccccc2n1`: the results for the IC50 in [19] and in experiment [21] were 35.8 µM (inactive) and 19.5 µM (active), respectively. Moreover, the concentration at half-maximal activity (AC50) in experiment [20] was 50.5 µM (active).

On to `O=C(Cc1ccccc1)N1CCN(c2cc(-c3ccccc3)nc3cc(-c4cccc(Cl)c4)nn23)CC1`, for which the values for the EC50 in [22] and in experiment [23] were 7.42 µM (active) and 3.62 µM (active), respectively.

Consider `CC(C)(C)c1ccc(-c2c(C(=O)O)c(C(=O)O)c3n2CSC3)cc1`, for which the IC50 in experiment [24] is 35.1 µM (inactive); in [25] it was > 59.6 µM (inactive).

For the molecule `CCCN(CC(=O)Nc1ccc(C(C)=O)cc1)CC(=O)Nc1ccccc1C`, the IC50 in [26] is 35.9 µM (inactive); in [27] it was 0.941 µM (active); in experiment [28], 12 µM (inactive).

A word on the AC50: it is the midpoint of the concentration-response curve, whichever way the signal moves.
